We go through two compounds from article PMC11492426, “Design, synthesis, and biological evaluation of novel quinoline-based EGFR/HER-2 dual-target inhibitors as potential anti-tumor agents” (RSC Advances, 2024).

The subject of assay [1] is Bax. Briefly: Bax activation assay in MCF-7 cells. Type of assay: cell-based, human. To be noted: for Bax Conc.: treated at IC50 values; for Bax Fold change: versus untreated control. As to the method: This lysate was diluted in Standard Diluent Buffer over the range of the assay and measured for human active caspase-8 content. (Cells are Plated in a density of 1.2 – 1.8 × 10,000 cells/well in a volume of 100µl complete growth medium + 100 ul of the tested compound per well in a 96-well plate for 24 hours before the enzyme assay for […].). […]
4.2.7. Bax activation assay
Bring all reagents, except the human Bax-α Standard, to room temperature for at least 30 minutes prior to opening. The human Bax-α Standard solution should not be left at room temperature for more than 10 minutes. All standards, controls and samples should be run in duplicate. Refer to the Assay Layout Sheet to determine the number of wells to be used and put any remaining wells with the desiccant back into the pouch and seal the ziploc. Store unused wells at 4 °C. Pipet 100 μL of Assay Buffer into the S0 (0 pg/mL standard) wells. Pipet 100 μL of Standards #1 through #6 into the appropriate wells. Pipet 100 μL of the Samples into the appropriate wells. Tap the plate gently to mix the contents. Seal the plate and incubate at room temperature on a plate shaker for 1 hour at ~500 rpm. Empty the contents of the wells and wash by adding 400 μL of wash solution to every well.
Repeat the wash 4 more times for a total of 5 washes. After the final wash, empty or aspirate the wells and firmly tap the plate on a lint free paper towel to remove any remaining wash buffer. Pipet 100 μL of yellow Antibody into each well, except the Blank. Seal the plate and incubate at room temperature on a plate shaker for 1 hour at ~500 rpm. Empty the contents of the wells and wash by adding 400 μL of wash solution to every well. Repeat the wash 4 more times for a total of 5 washes.
After the final wash, empty or aspirate the wells and firmly tap the plate on a lint free paper towel to remove any remaining wash buffer. Add 100 μL of blue Conjugate to each well, except the Blank.
Seal the plate and incubate at room temperature on a plate shaker for 30 minutes at ~500 rpm. Empty the contents of the wells and wash by adding 400 μL of wash solution to every well. Repeat the wash 4 more times for a total of 5 washes. After the final wash, empty or aspirate the wells and firmly tap […]
the plate on a lint free paper towel to remove any remaining wash buffer. Pipet 100 μL of Substrate Solution into each well. Incubate for 30 minutes at room temperature on a plate shaker at ~500 rpm.
Pipet 100 μL Stop Solution to each well. Blank the plate reader against the Blank wells, read the optical density at 450 nm. Calculate the average net Optical Density (OD) bound for each standard and sample by subtracting the average Blank OD from the average OD for each standard and sample.
Using linear graph paper, plot the Average Net OD for each standard versus Bax concentration in each standard. Approximate a straight line through the points. The concentration of Bax in the unknowns can be determined by interpolation. […]
Remove plate cover and empty the wells. […]
Incubate the microwell strips at room temperature (18° to 25°C) for about 15 minutes, if

For assay [2], the system named is Bcl-2. Briefly: Bcl-2 inhibition assay in MCF-7 cells. The class given is cell-based, human. To be noted: for Bcl-2 Conc.: treated at IC50 values. As to the method:
Additionally, the treatment led to a notable reduction in anti-apoptotic Bcl-2 expression levels, with a fold decrease of roughly 6 for compound 3e and 8 for compound 5a. Compounds 3e and 5a markedly elevated the Bax/Bcl-2 ratio compared to the control untreated cells. […]
4.2.8. Bcl-2 inhibition assay
Mix all reagents thoroughly without foaming before use. Wash the microwells twice with approximately 300 μL Wash Buffer per well with thorough aspiration of microwell contents between washes. Take caution not to scratch the surface of the microwells. After the last wash, empty the wells and tap microwell strips on absorbent pad or paper towel to remove excess Wash Buffer. Use the microwell strips immediately after washing or place upside down on a wet absorbent paper for not […]
longer than 15 minutes. […] Add 100 μL of Sample Diluent in duplicate to all standard wells and to the blank wells. Prepare standard (1:2 dilution) in duplicate ranging from 32 ng/mL to 0.5 ng/mL. Add 100 μL of Sample Diluent, in duplicate, to the blank wells. Add 80 μL of Sample Diluent, in duplicate, to the sample wells. Add 20 μL of each Sample, in duplicate, to the designated wells. Add 50 μL of diluted biotin-conjugate to all wells, including the blank wells. Cover with a plate cover and incubate at room temperature, on a microplate shaker at 100 rpm if available, for 2 hours. Remove plate cover and empty the wells. Wash microwell strips 3 times as described in step 2. Add 100 μL of diluted Streptavidin-HRP to all wells, including the blank wells. Cover with a plate cover and incubate at room temperature, on a microplate shaker at 100 rpm if available, for 1 hour. Remove plate cover and empty the wells. Wash microwell strips 3 times as described in step 2.
Proceed to the next step. Pipette 100 μl of mixed TMB Substrate Solution to all wells, including the blanks. Incubate the microwell strips at room temperature (18° to 25°C) for about 15 minutes, if available on a rotator set at 100 rpm. Avoid direct exposure to intense light. The point, at which the substrate reaction is stopped, is often determined by the ELISA reader. Many ELISA readers record absorbance only up to 2.0 O.D. Therefore, the color development within individual microwells must be watched by the person running the assay and the substrate reaction stopped before positive wells are no longer properly detectable. Stop the enzyme reaction by quickly pipetting 100 μL of Stop Solution into each well, including the blank wells. It is important that the Stop Solution is spread quickly and uniformly throughout the microwells to completely inactivate the enzyme. Results must be read immediately after the Stop Solution is added or within one hour if the microwell strips are stored at 2 - 8°C in the dark. Read absorbance of each microwell on a spectrophotometer using 450 nm as the primary wavelength.
4.3. Statistical analysis
Computerized Prism 5 program was used to statistically analyzed data using one-way ANOVA test followed by Tukey’s as post ANOVA for multiple comparison at P ≤.05. Data were presented as […]

In the case of `O=c1[nH]c2ccccc2c(O)c1C=Nc1ccc(NS(=O)(=O)c2ncccn2)cc1` [Compound 5a, N-(4-(((4-hydroxy-2-oxo-1,2-dihydroquinolin-3-yl)methylene)amino)phenyl) pyrimidine-2-sulfonamide], in assay [1], the “Bax Conc.” value came to 350 ± 3 pg/mL and the “Bax Fold change” value is recorded as 39. The “Bcl-2 Conc.” value in assay [2] turned out to be 0.62 ng/mL. Besides, the “Bcl-2 Fold reduction” value in assay [2] (versus untreated control) was roughly 8.

Take `O=c1[nH]c2ccccc2c(O)c1/C=N/c1nc(-c2ccncc2)n[nH]1` [Compound 3e, (E)-4-hydroxy-3-(((3-(pyridin-4-yl)-1H-1,2,4-triazol-5-yl)imino)methyl)quinolin-2(1H)-one]: in assay [1], the “Bax Conc.” value was found to be 316 ± 3 pg/mL and the “Bax Fold change” value stood at 35. Moreover, the “Bcl-2 Conc.” value in assay [2] amounted to 0.84 ng/mL.
